# According to patent US20260265271A1, “Cereblon Ligands and Uses Thereof” (REGENTS OF THE UNIVERSITY OF MICHIGAN, priority 2022, published 2026):
# Structures can show the parent of a compound that is named as a salt.
# Key:
# CRBN/DDB1 = CRBN/DDB1 (Homo sapiens, UniProt Q96SW2); test: biochemical
# Experimental: The CRBN-DDB1 binding potency of the present disclosure was determined using HTRF assay technology (Perkin Elmer). Compounds are serially diluted and are transferred multi-well plate. […] After one hour incubation at room temperature, the HTRF signals were read on Envision reader (Perkin Elemer).
# The binding potency was determined using HTRF assay technology (Perkin Elmer). Compounds were serially diluted in DMSO and 0.2 μL volume was transferred to white 384-well plate. […] After one hour incubation at room temperature, the HTRF signals were read on Envision reader (Perkin Elemer).
# ER [1] = target: T1, ER (Homo sapiens, UniProt P03372); test: ER degradation by in-cell western (ICW), MCF7 cells; type: cell-based; parameters: endogenous in cells; host or cells: MCF-7; details: for Dmax: MCF7, read-out: MCF7 Dmax (%); for DC50: MCF7 cells, ER in-cell western, 16 hours
# Experimental: (§1) ERa degradative activity of compounds can be assessed in MCF-7 and T47D Cells. MCF-7 and T47D cell are seeded and are subsequently treated with the compounds at certain concentrations (e.g., 0.02 to 300 nM). DMSO can be used as vehicle control. Cells are fixed and are blocked with Intercept (PBS) Blocking Buffer (e.g., Li—COR, Odyssey Blocking Buffer), and are stained with ER (e.g., 1:500, Cell signaling) primary antibody for overnight at cold room. Secondary Antibody (e.g., IRDye 800CW Goat anti-Rabbit IgG) and CellTag 700 Stain are added in Intercept (PBS) Blocking Buffer. Finally, cell plate is placed in incubator to dry. Image and signal were captured on Odyssey@DLx Imaging System.
# (§2) In-cell western blot analysis. Cells are seeded in multi-well plates (e.g., at 40,000 or 10,000 cells/well). Diluted compounds at certain concentration are added (final 0.5% DMSO) and cells are incubated for certain period of time (e.g., 16 hours). Formaldehyde (e.g., PBS:FA=9:1) is added and followed by washing with PBS. The cells are blocked with Licor blocking buffer (Li-Cor). The relative ER percentage in treated cells were obtained by comparing the values of treated wells to those in untreated and DMSO-treated wells as 100%.
# (§3) In-cell western blot analysis. a. seed cells in black-sided/clear bottom 96- or 384-well plates at 40,000 or 10,000 cells/well, overnight; b. add diluted compounds (final 0.5% DMSO), 16 hours. […] RT 2 h, gentle shaking. Negative control: cells plus secondary antibodies (no primary antibodies); e. wash×4 with PBS +0.05-0.1% Tween 20, gentel shaking; f. anti-rabbit-680 and anti-mouse-800 (both 1:1000 in LiCor block +0.05% Tween20, RT 1 h, gentle shaking, no light. LI-COR: 0.2% to reduce background; g. wash×4 with PBS+0.05% Tween 20, gental shaking; h. add 100 μL or 25 μL of PBS to each well and read on CLX plate reader. The relative ER percentage in treated cells were obtained by comparing the values of treated wells to those in untreated and DMSO-treated wells as 100%.
# ER [2] = target: T1, ER; test: ER degradation by in-cell western (ICW), T47D cells; type: cell-based; parameters: endogenous in cells; host or cells: T47D; details: for DC50: T47D cells, ER in-cell western, 16 hours; for Dmax: T47D, read-out: T47D Dmax (%)
# Experimental: as §1, §2, §3
# CRBN/DDB1, sequence (Q96SW2 whole entry): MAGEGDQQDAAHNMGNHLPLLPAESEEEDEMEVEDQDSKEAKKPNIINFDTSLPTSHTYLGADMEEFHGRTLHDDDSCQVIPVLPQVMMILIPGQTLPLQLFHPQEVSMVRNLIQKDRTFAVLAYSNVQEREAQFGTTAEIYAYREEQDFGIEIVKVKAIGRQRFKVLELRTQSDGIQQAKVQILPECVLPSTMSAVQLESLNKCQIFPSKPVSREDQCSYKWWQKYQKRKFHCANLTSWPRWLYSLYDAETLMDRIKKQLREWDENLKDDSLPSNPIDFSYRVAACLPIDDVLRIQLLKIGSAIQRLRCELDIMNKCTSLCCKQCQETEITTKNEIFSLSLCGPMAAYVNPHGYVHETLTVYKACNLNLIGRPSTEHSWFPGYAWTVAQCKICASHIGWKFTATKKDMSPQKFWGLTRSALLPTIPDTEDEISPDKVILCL
# CRBN/DDB1, sequence (Q16531 whole entry, further chain): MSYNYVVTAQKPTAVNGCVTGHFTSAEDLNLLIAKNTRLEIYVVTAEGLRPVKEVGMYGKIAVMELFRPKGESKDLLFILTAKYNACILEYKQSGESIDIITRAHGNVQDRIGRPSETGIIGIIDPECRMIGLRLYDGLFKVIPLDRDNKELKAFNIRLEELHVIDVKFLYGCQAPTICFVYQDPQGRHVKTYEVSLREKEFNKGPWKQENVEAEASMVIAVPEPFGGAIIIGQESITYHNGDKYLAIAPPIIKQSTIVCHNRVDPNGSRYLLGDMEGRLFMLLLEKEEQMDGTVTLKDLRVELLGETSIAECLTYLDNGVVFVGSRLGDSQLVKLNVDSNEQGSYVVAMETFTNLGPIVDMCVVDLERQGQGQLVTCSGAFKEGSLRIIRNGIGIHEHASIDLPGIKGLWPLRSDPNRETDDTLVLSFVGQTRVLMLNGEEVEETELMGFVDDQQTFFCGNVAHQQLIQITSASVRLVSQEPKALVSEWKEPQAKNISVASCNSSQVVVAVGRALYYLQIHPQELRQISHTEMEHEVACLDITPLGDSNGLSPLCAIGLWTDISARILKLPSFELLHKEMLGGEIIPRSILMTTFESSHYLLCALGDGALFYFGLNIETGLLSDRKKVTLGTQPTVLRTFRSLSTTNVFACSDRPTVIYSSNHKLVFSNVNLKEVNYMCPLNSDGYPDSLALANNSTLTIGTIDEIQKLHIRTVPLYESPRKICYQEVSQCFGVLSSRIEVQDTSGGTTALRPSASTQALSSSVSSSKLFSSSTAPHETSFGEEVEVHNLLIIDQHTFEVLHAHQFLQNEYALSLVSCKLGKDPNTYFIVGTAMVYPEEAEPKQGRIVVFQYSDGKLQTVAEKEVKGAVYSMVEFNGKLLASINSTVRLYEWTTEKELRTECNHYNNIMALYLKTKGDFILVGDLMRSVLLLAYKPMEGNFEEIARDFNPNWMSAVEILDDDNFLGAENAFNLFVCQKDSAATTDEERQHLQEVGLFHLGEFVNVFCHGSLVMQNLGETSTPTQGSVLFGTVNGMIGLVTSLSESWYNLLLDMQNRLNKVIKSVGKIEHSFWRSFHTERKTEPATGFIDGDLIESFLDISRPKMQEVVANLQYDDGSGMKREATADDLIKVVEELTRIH
# T1 sequence (P03372 whole entry): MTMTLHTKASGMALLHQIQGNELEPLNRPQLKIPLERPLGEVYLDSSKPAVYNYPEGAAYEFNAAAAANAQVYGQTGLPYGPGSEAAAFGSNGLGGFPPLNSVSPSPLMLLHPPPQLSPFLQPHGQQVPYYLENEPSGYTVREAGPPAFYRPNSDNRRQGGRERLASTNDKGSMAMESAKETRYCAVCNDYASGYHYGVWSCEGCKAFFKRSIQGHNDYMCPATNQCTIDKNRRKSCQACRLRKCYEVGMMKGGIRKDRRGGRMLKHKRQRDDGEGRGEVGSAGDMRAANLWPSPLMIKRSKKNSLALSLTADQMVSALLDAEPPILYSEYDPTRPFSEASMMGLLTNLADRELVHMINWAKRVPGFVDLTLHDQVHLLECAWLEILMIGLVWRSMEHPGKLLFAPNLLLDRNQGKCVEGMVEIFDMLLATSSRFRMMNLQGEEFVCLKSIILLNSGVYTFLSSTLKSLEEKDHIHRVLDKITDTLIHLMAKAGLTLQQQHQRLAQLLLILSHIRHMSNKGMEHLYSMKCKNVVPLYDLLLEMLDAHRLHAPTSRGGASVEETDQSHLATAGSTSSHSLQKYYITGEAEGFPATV
SMILES,IC50 (CRBN/DDB1) [nM],Dmax (ER [1]) [%],DC50 (ER [1]) [nM],DC50 (ER [2]) [nM],Dmax (ER [2]) [%]
"CN1CCN2c3cc(F)c(C(=O)N[C@H]4CCC(=O)NC4=O)cc3OC[C@@H]2C1 [Compound A2, (S)—N—((S)-2,6-dioxopiperidin-3-yl)-9-fluoro-3-methyl-1,2,3,4,4a,5-hexahydrobenzo[b]pyrazino[1,2-d][1,4]oxazine-8-carboxamide]",3640,,,,
"CC(C)(C)OC(=O)N1CCN2c3cc4c(cc3OC[C@@H]2C1)C(=O)N(C1CCC(=O)NC1=O)C4 (stereo partly drawn) [Compound A3, tert-butyl (4aS)-9-(2,6-dioxopiperidin-3-yl)-8-oxo-1,2,4a,5,9,10-hexahydro-8H-pyrazino[1′,2′:4,5][1,4]oxazino[2,3-f]isoindole-3(4H)-carboxylate]",330,,,,
"O=C1CC[C@H](N2Cc3cc4c(cc3C2=O)OC[C@@H]2CNCCN42)C(=O)N1 [Compound A8, (S)-3-((S)-8-oxo-3,4,4a,5-tetrahydro-1H-pyrazino [1′,2′:4,5][1,4]oxazino[2,3-f]isoindol-9(2H,8H,10H)-yl)piperidine-2,6-dione hydrochloride]",430,,,,
"C[C@@H]1Cc2c(ccc3[nH]ncc23)[C@@H](c2ccc(N3CCC4(CC3)CC(CN3CCN5c6cc7c(cc6OC[C@@H]5C3)C(=O)N([C@@H]3CCC(=O)NC3=O)C7)C4)cn2)N1CC1(F)CC1 [IDZ-A12, (R)-3-((S)-3-((7-(6-((6S,8R)-7-((1-fluorocyclopropyl)methyl)-8-methyl-6,7,8,9-tetrahydro-3H-pyrazolo[4,3-f]isoquinolin-6-yl)pyridin-3-yl)-7-azaspiro[3.5]nonan-2-yl)methyl)-8-oxo-1,2,3,4,4a,5,8,10-octahydro-9H-pyrazino[1′,2′:4,5][1,4]oxazino[2,3-f]isoindol-9-yl)piperidine-2,6-dione]",,> 75,< 1,< 1,> 75
"C[C@@H]1Cc2c([nH]c3ccccc23)[C@@H](c2cnc(N3CCC4(CC3)CC(CN3CCN5c6ccc(C(=O)N[C@H]7CCC(=O)NC7=O)nc6OC[C@H]5C3)CO4)nc2)N1CC(F)F (stereo partly drawn) [IND-A63, (4aR)-3-((8-(5-((1R,3R)-2-(2,2-difluoroethyl)-3-methyl-2,3,4,9-tetrahydro-1H-pyrido[3,4-b]indol-1-yl)pyrimidin-2-yl)-1-oxa-8-azaspiro[4.5]decan-3-yl)methyl)-N—((S)-2,6-dioxopiperidin-3-yl)-1,2,3,4,4a,5-hexahydropyrazino[1,2-d]pyrido[2,3-b][1,4]oxazine-8-carboxamide]",,50 to 75,1 to 10,1 to 10,50 to 75
